Laboratory results taken from ChEMBL document CHEMBL4020788, “Synthesis, SAR and molecular docking studies of benzo[d]thiazole-hydrazones as potential antibacterial and antifungal agents” (2017).
The source made the active and inactive calls. No cut-off for these calls is given here.

Tests used:
Type in all cases: functional
Staphylococcus aureus [1] = assay: Antibacterial activity against Staphylococcus aureus at 25 ug/ml after 24 hrs by agar well diffusion method
Staphylococcus aureus [2] = assay: Antibacterial activity against Staphylococcus aureus at 50 ug/ml after 24 hrs by agar well diffusion method
Staphylococcus aureus [3] = assay: Antibacterial activity against Staphylococcus aureus at 75 ug/ml after 24 hrs by agar well diffusion method
Staphylococcus aureus [4] = assay: Antibacterial activity against Staphylococcus aureus at 100 ug/ml after 24 hrs by agar well diffusion method
Bacillus subtilis [5] = assay: Antibacterial activity against Bacillus subtilis at 25 ug/ml after 24 hrs by agar well diffusion method
Bacillus subtilis [6] = assay: Antibacterial activity against Bacillus subtilis at 50 ug/ml after 24 hrs by agar well diffusion method
Bacillus subtilis [7] = assay: Antibacterial activity against Bacillus subtilis at 75 ug/ml after 24 hrs by agar well diffusion method
Bacillus subtilis [8] = assay: Antibacterial activity against Bacillus subtilis at 100 ug/ml after 24 hrs by agar well diffusion method
Escherichia coli [9] = assay: Antibacterial activity against Escherichia coli at 25 ug/ml after 24 hrs by agar well diffusion method; settings: for zone of inhibition at 25 µg/mL: read-out: DIZ
Escherichia coli [10] = assay: Antibacterial activity against Escherichia coli at 50 ug/ml after 24 hrs by agar well diffusion method; settings: for zone of inhibition at 50 µg/mL: read-out: DIZ
Escherichia coli [11] = assay: Antibacterial activity against Escherichia coli at 75 ug/ml after 24 hrs by agar well diffusion method; settings: for zone of inhibition at 75 µg/mL: read-out: DIZ
Escherichia coli [12] = assay: Antibacterial activity against Escherichia coli at 100 ug/ml after 24 hrs by agar well diffusion method; settings: for zone of inhibition at 100 µg/mL: read-out: DIZ
Klebsiella pneumoniae [13] = assay: Antibacterial activity against Klebsiella pneumoniae at 25 ug/ml after 24 hrs by agar well diffusion method; settings: for zone of inhibition at 25 µg/mL: read-out: DIZ
Klebsiella pneumoniae [14] = assay: Antibacterial activity against Klebsiella pneumoniae at 50 ug/ml after 24 hrs by agar well diffusion method; settings: for zone of inhibition at 50 µg/mL: read-out: DIZ
Klebsiella pneumoniae [15] = assay: Antibacterial activity against Klebsiella pneumoniae at 75 ug/ml after 24 hrs by agar well diffusion method; settings: for zone of inhibition at 75 µg/mL: read-out: DIZ
Klebsiella pneumoniae [16] = assay: Antibacterial activity against Klebsiella pneumoniae at 100 ug/ml after 24 hrs by agar well diffusion method; settings: for zone of inhibition at 100 µg/mL: read-out: DIZ
Staphylococcus aureus [17] = assay: Antibacterial activity against methicillin resistant Staphylococcus aureus MRSA090 at 25 ug/ml after 24 hrs by agar well diffusion method; settings: for zone of inhibition at 25 µg/mL: MRSA090, 24 h, read-out: DIZ
Staphylococcus aureus [18] = assay: Antibacterial activity against methicillin resistant Staphylococcus aureus MRSA090 at 50 ug/ml after 24 hrs by agar well diffusion method; settings: for zone of inhibition at 50 µg/mL: MRSA090, 24 h, read-out: DIZ
Staphylococcus aureus [19] = assay: Antibacterial activity against methicillin resistant Staphylococcus aureus MRSA090 at 75 ug/ml after 24 hrs by agar well diffusion method; settings: for zone of inhibition at 75 µg/mL: MRSA090, 24 h, read-out: DIZ
Staphylococcus aureus [20] = assay: Antibacterial activity against methicillin resistant Staphylococcus aureus MRSA090 at 100 ug/ml after 24 hrs by agar well diffusion method; settings: for zone of inhibition at 100 µg/mL: MRSA090, 24 h, read-out: DIZ
Aspergillus niger [21] = assay: Antifungal activity against Aspergillus niger at 25 ug/ml after 48 hrs by agar well diffusion method; settings: for zone of inhibition at 25 µg/mL: read-out: DIZ
Aspergillus niger [22] = assay: Antifungal activity against Aspergillus niger at 50 ug/ml after 48 hrs by agar well diffusion method; settings: for zone of inhibition at 50 µg/mL: read-out: DIZ
Aspergillus niger [23] = assay: Antifungal activity against Aspergillus niger at 75 ug/ml after 48 hrs by agar well diffusion method; settings: for zone of inhibition at 75 µg/mL: read-out: DIZ
Aspergillus niger [24] = assay: Antifungal activity against Aspergillus niger at 100 ug/ml after 48 hrs by agar well diffusion method; settings: for zone of inhibition at 100 µg/mL: read-out: DIZ
Fusarium verticillioides [25] = assay: Antifungal activity against Fusarium moniliforme at 25 ug/ml after 48 hrs by agar well diffusion method
Fusarium verticillioides [26] = assay: Antifungal activity against Fusarium moniliforme at 50 ug/ml after 48 hrs by agar well diffusion method
Fusarium verticillioides [27] = assay: Antifungal activity against Fusarium moniliforme at 75 ug/ml after 48 hrs by agar well diffusion method
Fusarium verticillioides [28] = assay: Antifungal activity against Fusarium moniliforme at 100 ug/ml after 48 hrs by agar well diffusion method
Fusarium oxysporum [29] = assay: Antifungal activity against Fusarium oxysporum at 25 ug/ml after 48 hrs by agar well diffusion method
Fusarium oxysporum [30] = assay: Antifungal activity against Fusarium oxysporum at 50 ug/ml after 48 hrs by agar well diffusion method
Fusarium oxysporum [31] = assay: Antifungal activity against Fusarium oxysporum at 75 ug/ml after 48 hrs by agar well diffusion method
Fusarium oxysporum [32] = assay: Antifungal activity against Fusarium oxysporum at 100 ug/ml after 48 hrs by agar well diffusion method

COc1ccc(/C=N/Nc2nc3cccc(C)c3s2)cc1Br
diameter of the inhibition zone (DIZ) (Staphylococcus aureus [1]): inactive | diameter of the inhibition zone (DIZ) (Staphylococcus aureus [2]): inactive | diameter of the inhibition zone (DIZ) (Staphylococcus aureus [3]): inactive | diameter of the inhibition zone (DIZ) (Staphylococcus aureus [4]): inactive | zone of inhibition at 25 µg/mL (Bacillus subtilis [5]; read-out: DIZ): 4 mm | zone of inhibition at 50 µg/mL (Bacillus subtilis [6]; read-out: DIZ): 8 mm | zone of inhibition at 75 µg/mL (Bacillus subtilis [7]; read-out: DIZ): 11 mm | zone of inhibition at 100 µg/mL (Bacillus subtilis [8]; read-out: DIZ): 16 mm | zone of inhibition at 25 µg/mL (Escherichia coli [9]): 7 mm | zone of inhibition at 50 µg/mL (Escherichia coli [10]): 9 mm | zone of inhibition at 75 µg/mL (Escherichia coli [11]): 13 mm | zone of inhibition at 100 µg/mL (Escherichia coli [12]): 16 mm | zone of inhibition at 25 µg/mL (Klebsiella pneumoniae [13]): 7 mm | zone of inhibition at 50 µg/mL (Klebsiella pneumoniae [14]): 11 mm | zone of inhibition at 75 µg/mL (Klebsiella pneumoniae [15]): 14 mm | zone of inhibition at 100 µg/mL (Klebsiella pneumoniae [16]): 16 mm | zone of inhibition at 25 µg/mL (Staphylococcus aureus [17]): 8 mm | zone of inhibition at 50 µg/mL (Staphylococcus aureus [18]): 12 mm | zone of inhibition at 75 µg/mL (Staphylococcus aureus [19]): 16 mm | zone of inhibition at 100 µg/mL (Staphylococcus aureus [20]): 18 mm | zone of inhibition at 25 µg/mL (Aspergillus niger [21]): 8 mm | zone of inhibition at 50 µg/mL (Aspergillus niger [22]): 11 mm | zone of inhibition at 75 µg/mL (Aspergillus niger [23]): 14 mm | zone of inhibition at 100 µg/mL (Aspergillus niger [24]): 18 mm | zone of inhibition at 25 µg/mL (Fusarium verticillioides [25]; read-out: DIZ): 7 mm | zone of inhibition at 50 µg/mL (Fusarium verticillioides [26]; read-out: DIZ): 11 mm | zone of inhibition at 75 µg/mL (Fusarium verticillioides [27]; read-out: DIZ): 13 mm | zone of inhibition at 100 µg/mL (Fusarium verticillioides [28]; read-out: DIZ): 17 mm | diameter of the inhibition zone (DIZ) (Fusarium oxysporum [29]): inactive | diameter of the inhibition zone (DIZ) (Fusarium oxysporum [30]): inactive | diameter of the inhibition zone (DIZ) (Fusarium oxysporum [31]): inactive | zone of inhibition at 100 µg/mL (Fusarium oxysporum [32]; read-out: DIZ): 10 mm

Cc1cccc2nc(N/N=C/c3ccncc3)sc12
diameter of the inhibition zone (DIZ) (Staphylococcus aureus [1]): inactive | diameter of the inhibition zone (DIZ) (Staphylococcus aureus [2]): inactive | diameter of the inhibition zone (DIZ) (Staphylococcus aureus [3]): inactive | diameter of the inhibition zone (DIZ) (Staphylococcus aureus [4]): inactive | diameter of the inhibition zone (DIZ) (Bacillus subtilis [5]): inactive | diameter of the inhibition zone (DIZ) (Bacillus subtilis [6]): inactive | diameter of the inhibition zone (DIZ) (Bacillus subtilis [7]): inactive | diameter of the inhibition zone (DIZ) (Bacillus subtilis [8]): inactive | zone of inhibition at 25 µg/mL (Escherichia coli [9]): 7 mm | zone of inhibition at 50 µg/mL (Escherichia coli [10]): 14 mm | zone of inhibition at 75 µg/mL (Escherichia coli [11]): 16 mm | zone of inhibition at 100 µg/mL (Escherichia coli [12]): 19 mm | zone of inhibition at 25 µg/mL (Klebsiella pneumoniae [13]): 5 mm | zone of inhibition at 50 µg/mL (Klebsiella pneumoniae [14]): 9 mm | zone of inhibition at 75 µg/mL (Klebsiella pneumoniae [15]): 14 mm | zone of inhibition at 100 µg/mL (Klebsiella pneumoniae [16]): 18 mm | zone of inhibition at 25 µg/mL (Staphylococcus aureus [17]): 7 mm | zone of inhibition at 50 µg/mL (Staphylococcus aureus [18]): 10 mm | zone of inhibition at 75 µg/mL (Staphylococcus aureus [19]): 14 mm | zone of inhibition at 100 µg/mL (Staphylococcus aureus [20]): 17 mm | zone of inhibition at 25 µg/mL (Aspergillus niger [21]): 6 mm | zone of inhibition at 50 µg/mL (Aspergillus niger [22]): 11 mm | zone of inhibition at 75 µg/mL (Aspergillus niger [23]): 13 mm | zone of inhibition at 100 µg/mL (Aspergillus niger [24]): 16 mm | diameter of the inhibition zone (DIZ) (Fusarium verticillioides [25]): inactive | diameter of the inhibition zone (DIZ) (Fusarium verticillioides [26]): inactive | diameter of the inhibition zone (DIZ) (Fusarium verticillioides [27]): inactive | diameter of the inhibition zone (DIZ) (Fusarium verticillioides [28]): inactive | diameter of the inhibition zone (DIZ) (Fusarium oxysporum [29]): inactive | diameter of the inhibition zone (DIZ) (Fusarium oxysporum [30]): inactive | diameter of the inhibition zone (DIZ) (Fusarium oxysporum [31]): inactive | diameter of the inhibition zone (DIZ) (Fusarium oxysporum [32]): inactive

Cc1cccc2nc(N/N=C/CC(C)C)sc12
diameter of the inhibition zone (DIZ) (Staphylococcus aureus [1]): inactive | diameter of the inhibition zone (DIZ) (Staphylococcus aureus [2]): inactive | diameter of the inhibition zone (DIZ) (Staphylococcus aureus [3]): inactive | diameter of the inhibition zone (DIZ) (Staphylococcus aureus [4]): inactive | diameter of the inhibition zone (DIZ) (Bacillus subtilis [5]): inactive | diameter of the inhibition zone (DIZ) (Bacillus subtilis [6]): inactive | diameter of the inhibition zone (DIZ) (Bacillus subtilis [7]): inactive | diameter of the inhibition zone (DIZ) (Bacillus subtilis [8]): inactive | diameter of the inhibition zone (DIZ) (Escherichia coli [9]): inactive | diameter of the inhibition zone (DIZ) (Escherichia coli [10]): inactive | diameter of the inhibition zone (DIZ) (Escherichia coli [11]): inactive | diameter of the inhibition zone (DIZ) (Escherichia coli [12]): inactive | diameter of the inhibition zone (DIZ) (Klebsiella pneumoniae [13]): inactive | diameter of the inhibition zone (DIZ) (Klebsiella pneumoniae [14]): inactive | diameter of the inhibition zone (DIZ) (Klebsiella pneumoniae [15]): inactive | diameter of the inhibition zone (DIZ) (Klebsiella pneumoniae [16]): inactive | diameter of the inhibition zone (DIZ) (Staphylococcus aureus [17]): inactive | diameter of the inhibition zone (DIZ) (Staphylococcus aureus [18]): inactive | diameter of the inhibition zone (DIZ) (Staphylococcus aureus [19]): inactive | diameter of the inhibition zone (DIZ) (Staphylococcus aureus [20]): inactive | diameter of the inhibition zone (DIZ) (Aspergillus niger [21]): inactive | diameter of the inhibition zone (DIZ) (Aspergillus niger [22]): inactive | diameter of the inhibition zone (DIZ) (Aspergillus niger [23]): inactive | diameter of the inhibition zone (DIZ) (Aspergillus niger [24]): inactive | diameter of the inhibition zone (DIZ) (Fusarium verticillioides [25]): inactive | diameter of the inhibition zone (DIZ) (Fusarium verticillioides [26]): inactive | diameter of the inhibition zone (DIZ) (Fusarium verticillioides [27]): inactive | diameter of the inhibition zone (DIZ) (Fusarium verticillioides [28]): inactive | diameter of the inhibition zone (DIZ) (Fusarium oxysporum [29]): inactive | diameter of the inhibition zone (DIZ) (Fusarium oxysporum [30]): inactive | diameter of the inhibition zone (DIZ) (Fusarium oxysporum [31]): inactive | diameter of the inhibition zone (DIZ) (Fusarium oxysporum [32]): inactive
